Results published in PubChem BioAssay AID1963868 (Molecular Pharmacology Branch, DTP, NCI, 2024).
Where “and” joins values, the source holds several entries; their conditions need not be identical. Equal values may be shown once.

System: KRAS PDC tumor spheroids (HUVEC+MSC), viability
Assay: Anticancer human tumor 254851-301-R-J1-PDC patient-derived colon carcinoma cell line growth inhibition [KRAS2]
Conditions: for viability, T/C: stronger effect = lower value
Text: Multicellular complex tumor spheroid response to RAS pathway inhibitors in combination with a targeted agents in patient-derived cell lines with oncogenic KRAS variants from multiple cancer types
A high-throughput screen of multi-cell type tumor spheroids was designed to identify active combinations of targeted small molecules and KRAS pathway inhibitors. Complex spheroids include a stromal component modeled by human endothelial cells (HUVEC) and fibroblasts modeled by human mesenchymal stem cells (MSCs). The concentration ranges selected for each drug and investigational agent were based upon clinically achievable concentrations if the clinical Cmax of the agent was known.
Compounds. The drugs and investigational agents: BI-3406 (NSC825286), BAY-293 (NSC824723), batoprotafib (TNO155; NSC825523), sotorasib (AMG 510; NSC818433), MRTX1257 (NSC819558), elimusertib (BAY 1895344; NSC800525), molibresib (GSK525762; NSC774829), temuterkib (LY3214996; NSC803410), venetoclax (NSC766270), alisertib (NSC759677), olaparib (NSC753686), talazoparib (NSC767125), erdafitinib (NSC781556), ipatasertib (NSC767898), cabozantinib (NSC761068), nintedanib (NSC756659), abemaciclib (NSC768073), docetaxel (NSC628503), trametinib (NSC758246), and sapanisertib (NSC764658) were obtained from the National Cancer Institute (NCI) Developmental Therapeutics Program Chemical Repository. The FDA-approved anticancer drug set is available from the Developmental Therapeutics Program. […] The stock solutions were prepared in dimethyl sulfoxide (DMSO, Sigma-Aldrich, St. Louis, MO, cat. D2650) at 800-fold the tested concentration and stored at -70 degrees C prior to their use. All drugs and investigational agents were tested over a range starting from a high concentration at or near the clinical Cmax and decreasing in half-log increments. If the clinical Cmax for an agent had not been determined, the highest concentration tested was 10 microM.
Cell Culture. All cells were maintained in an incubator at 37 degrees C and 5% CO2 with 95% humidity. The PDC lines were cultured according to standard operating procedures established by the NCI PDMR (https://pdmr.cancer.gov/sops/default.htm). Briefly, all PDCs were thawed and cultured in Matrigel-coated flasks prepared with a working solution of 1X Ham's F-12 nutrient mix, without supplementation (Invitrogen, Waltham, MA, cat. 11765054), 100 U/mL penicillin-streptomycin (Invitrogen, cat. 15140122), and 2.5% Matrigel (Corning Inc., Corning, NY, cat. 354248) for the first three passages. All PDCs were cultured in complete DMEM/F-12 media containing advanced DMEM/F-12 (Invitrogen, cat. 12634028), 4.9% defined fetal bovine serum, heat inactivated (HyClone Laboratories Inc., Logan, UT, cat. SH30070.03HI), 389 ng/mL hydrocortisone (Sigma-Aldrich, cat. H4001), 9.7 ng/mL human EGF recombinant protein (Invitrogen, cat. PHG0313), 23.4 microg/mL adenine (Sigma-Aldrich, cat. A2786), 97.3 U/mL penicillin-streptomycin (Invitrogen, cat. 15140122), 1.9 mM L-glutamine (Invitrogen, cat. 25030081), and 9.7 microM Y-27632 dihydrochloride (Tocris Bioscience, Bristol, United Kingdom, cat. 1254). The PDCs were cultured in complete DMEM/F12 media without 9.7 microM Y-27632 dihydrochloride for at least two passages prior to the screen. The established cell line HOP-62 was cultured in RPMI 1640 medium, HEPES (Invitrogen, cat. 22400105) with 10% defined fetal bovine serum (HyClone Laboratories Inc., cat. SH30070.03) and 2 mM L-glutamine (Invitrogen, cat. 25030081). The pooled donor HUVEC were cultured in endothelial cell growth medium 2 (PromoCell, Heidelberg, Germany, cat. C-22011) and the hMSC were cultured in mesenchymal stem cell growth medium 2 (PromoCell, cat. C-28009). For all experiments, HUVEC and hMSC were used at passages </=5, while the malignant cell lines were used at passages </=15. […]
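Further: spheroids exposed to compounds for seven days before readout.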
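Wherever viability, T/C is given: 100% = DMSO vehicle control luminescence of the spheroids.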

COc1cc(Nc2ncc3c(n2)-c2ccc(Cl)cc2C(c2c(F)cccc2OC)=NC3)ccc1C(=O)O
viability, T/C (compound 0.0316 µM): 80.7% [middle of 5 runs] | viability, T/C (compound 0.1 µM): 41.5% [middle of 5 runs] | viability, T/C (compound 0.316 µM): 32.4% [middle of 5 runs] | viability, T/C (compound 1 µM): 28.5% [middle of 5 runs] | viability, T/C (compound 3.16 µM): 18.7% [middle of 5 runs] | viability, T/C (compound 10 µM): 10.7% [middle of 5 runs] | IC50 (curve of compound): 89.4 nM [middle of 5 runs]

C=CC(=O)N1CCN(c2nc(OCC3CCCN3C)nc3c2CCN(c2cccc4cccc(C)c24)C3)CC1CC#N (centres undefined)
viability, T/C (compound 0.0316 µM): 98.7% [middle of 17 runs] | viability, T/C (compound 0.1 µM): 97% [middle of 17 runs] | IC50 (compound alone, run of 07/12/2021): > 3.16 µM | IC50 (compound alone, run of 07/19/2021): > 3.16 µM | IC50 (compound alone, run of 07/26/2021): > 3.16 µM

CCN1CCN(Cc2ccc(Nc3ncc(F)c(-c4cc(F)c5nc(C)n(C(C)C)c5c4)n3)nc2)CC1
viability, T/C (compound 0.00316 µM): 98.6% [middle of 5 runs] | viability, T/C (compound 0.01 µM): 101% [middle of 5 runs] | viability, T/C (compound 0.0316 µM): 90.3% [middle of 5 runs] | viability, T/C (compound 0.1 µM): 83.7% [middle of 5 runs] | viability, T/C (compound 0.316 µM): 69.6% [middle of 5 runs] | viability, T/C (compound 1 µM): 42% [middle of 5 runs]

CC(C)NCC(C(=O)N1CCN(c2ncnc3c2C(C)CC3O)CC1)c1ccc(Cl)cc1 (centres undefined)
viability, T/C (compound 0.0316 µM): 100% and 101% (3×) and 105% | viability, T/C (compound 0.1 µM): 103% [middle of 5 runs] | viability, T/C (compound 0.316 µM): 99.5% [middle of 5 runs] | viability, T/C (compound 1 µM): 104% [middle of 5 runs] | viability, T/C (compound 10 µM): 98.9% [middle of 5 runs] | IC50 (curve of compound): > 10 µM

COc1cc(Nc2ncc3c(n2)-c2ccc(Cl)cc2C(c2c(F)cccc2OC)=NC3)ccc1C(=O)O + COc1cc2nc(C)nc(NC(C)c3cc(N)cc(C(F)(F)F)c3)c2cc1OC1CCOC1
IC50 (curve of first compound, second compound 0.1 µM): 0.0884 µM | IC50 (curve of first compound, second compound 0.316 µM): 0.0859 µM | IC50 (curve of first compound, second compound 1 µM): 0.0807 µM | IC50 (curve of first compound, second compound 3.16 µM): 0.0771 µM | IC50 (curve of first compound, second compound 10 µM): 0.0483 µM | viability, T/C (second compound 0.1 µM, first compound 0.0316 µM): 77.7% | viability, T/C (second compound 0.1 µM, first compound 0.1 µM): 42% | viability, T/C (second compound 0.1 µM, first compound 0.316 µM): 31.5% | viability, T/C (second compound 0.1 µM, first compound 1 µM): 25.1% | viability, T/C (second compound 0.1 µM, first compound 3.16 µM): 14% | viability, T/C (second compound 0.1 µM, first compound 10 µM): 9.19% | viability, T/C (second compound 0.316 µM, first compound 0.0316 µM): 83.9% | viability, T/C (second compound 0.316 µM, first compound 0.1 µM): 39.8% | viability, T/C (second compound 0.316 µM, first compound 0.316 µM): 30.7% | viability, T/C (second compound 0.316 µM, first compound 1 µM): 24.1% | viability, T/C (second compound 0.316 µM, first compound 3.16 µM): 17% | viability, T/C (second compound 0.316 µM, first compound 10 µM): 8.65% | viability, T/C (second compound 1 µM, first compound 0.0316 µM): 77.4% | viability, T/C (second compound 1 µM, first compound 0.1 µM): 39.1% | viability, T/C (second compound 1 µM, first compound 0.316 µM): 30.1% | viability, T/C (second compound 1 µM, first compound 1 µM): 24.6% | viability, T/C (second compound 1 µM, first compound 3.16 µM): 18.5% | viability, T/C (second compound 1 µM, first compound 10 µM): 8.42% | viability, T/C (second compound 3.16 µM, first compound 0.0316 µM): 74.5% | viability, T/C (second compound 3.16 µM, first compound 0.1 µM): 38.8% | viability, T/C (second compound 3.16 µM, first compound 0.316 µM): 30.2% | viability, T/C (second compound 3.16 µM, first compound 1 µM): 25.8% | viability, T/C (second compound 3.16 µM, first compound 3.16 µM): 20.3% | viability, T/C (second compound 3.16 µM, first compound 10 µM): 10.9% | viability, T/C (second compound 10 µM, first compound 0.0316 µM): 58.6% | viability, T/C (second compound 10 µM, first compound 0.1 µM): 34.1% | viability, T/C (second compound 10 µM, first compound 0.316 µM): 28.9% | viability, T/C (second compound 10 µM, first compound 1 µM): 25% | viability, T/C (second compound 10 µM, first compound 3.16 µM): 22.4% | viability, T/C (second compound 10 µM, first compound 10 µM): 16.4%
